The record followed here is patent publication US20080114007A1 (priority 2006, published 2008).

The target of one experiment is CSF-1R (Homo sapiens, UniProt P07333). Nature of the experiment: Peptide (non-phosphorylated) assay, fluorescence polarization competition immunoassay. The experiment is classed as biochemical. To be noted: 0.7 nM CSF-1R, 308 μM SYEGNSYTFIDPTQ peptide, 1 mM ATP, 80 min; mean of at least three determinations; read-out: c-fms Peptide IC50. The method in brief: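 Human CSF-1R kinase reaction started with ATP and run 80 min at room temperature, then stopped with EDTA. Phosphopeptide detected by fluorescence polarization competition using anti-phosphotyrosine antibody and PTK green tracer after 30 min. Controls used 4% DMSO, with EDTA added before reaction start for positive controls.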
Chain of CSF-1R (P07333 20-972): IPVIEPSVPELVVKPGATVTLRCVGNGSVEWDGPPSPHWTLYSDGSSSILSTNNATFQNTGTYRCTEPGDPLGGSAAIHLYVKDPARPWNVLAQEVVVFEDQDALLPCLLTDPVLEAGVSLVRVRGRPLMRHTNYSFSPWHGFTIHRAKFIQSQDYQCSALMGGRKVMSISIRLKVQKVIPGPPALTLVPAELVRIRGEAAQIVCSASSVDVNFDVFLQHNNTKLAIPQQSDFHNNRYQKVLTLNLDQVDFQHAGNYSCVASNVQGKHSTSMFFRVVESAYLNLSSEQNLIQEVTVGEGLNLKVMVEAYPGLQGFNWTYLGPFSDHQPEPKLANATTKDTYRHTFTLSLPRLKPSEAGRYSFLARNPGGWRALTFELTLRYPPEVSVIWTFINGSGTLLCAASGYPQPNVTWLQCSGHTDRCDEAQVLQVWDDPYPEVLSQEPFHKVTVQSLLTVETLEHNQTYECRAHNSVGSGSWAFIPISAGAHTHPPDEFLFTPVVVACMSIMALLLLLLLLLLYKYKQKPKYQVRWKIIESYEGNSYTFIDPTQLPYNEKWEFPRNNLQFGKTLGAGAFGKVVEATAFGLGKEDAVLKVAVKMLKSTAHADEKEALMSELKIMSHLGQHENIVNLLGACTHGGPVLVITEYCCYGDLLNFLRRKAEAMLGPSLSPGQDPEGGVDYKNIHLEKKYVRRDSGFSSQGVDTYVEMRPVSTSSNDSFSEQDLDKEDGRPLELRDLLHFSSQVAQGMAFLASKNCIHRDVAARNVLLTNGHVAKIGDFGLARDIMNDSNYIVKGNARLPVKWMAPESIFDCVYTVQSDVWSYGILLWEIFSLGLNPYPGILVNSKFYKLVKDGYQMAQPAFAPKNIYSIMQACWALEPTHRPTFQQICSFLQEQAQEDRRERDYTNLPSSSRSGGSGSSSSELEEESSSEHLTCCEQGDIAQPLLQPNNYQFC
On the technique in general: Polarisation of emitted light reports the rotation of a fluorescent probe.
Regarding `CONC(=O)c1cn(-c2ccc3c(c2)CCC3)c2nc(Nc3ccc(C4CCN(CC(F)(F)C(F)(F)F)CC4)cc3)ncc2c1=O` [Cpd 293, 8-indan-5-yl-5-oxo-2-{4-[1-(2,2,3,3,3-pentafluoro-propyl)-piperidin-4-yl]-phenylamino}-5,8-dihydro-pyrido[2,3-d]pyrimidine-6-carboxylic acid methoxy-amide], the IC50 worked out at 2.9 nM. Same read-out and setting: with `CCn1cnc2cc(Nc3ncc4c(=O)c(C(=O)NOC)cn(-c5ccc6c(c5)CCC6)c4n3)ccc21` [Cpd 301, 2-(1-ethyl-1H-benzoimidazol-5-ylamino)-8-indan-5-yl-5-oxo-5,8-dihydro-pyrido[2,3-d]pyrimidine-6-carboxylic acid methoxy-amide] the figure was 0.9 nM; with `CCc1ccc(-n2cc(C(=O)NOC)c(=O)c3cnc(Nc4ccc5c(c4)OCCOCCOCCOCCOCCO5)nc32)cc1` [Cpd 294, 2-(6,7,9,10,12,13,15,16,18,19-decahydro-5,8,11,14,17,20-hexaoxa-benzocyclooctadecen-2-ylamino)-8-(4-ethyl-phenyl)-5-oxo-5,8-dihydro-pyrido[2,3-d]pyrimidine-6-carboxylic acid methoxy-amide], 0.4 nM. With `CONC(=O)c1cn(-c2cccc(C(F)(F)F)c2)c2nc(Nc3ccc(C4CCN(C)CC4)cc3)ncc2c1=O`, the IC50 was 0.8 nM. Take `CCc1ccc(-n2cc(C(=O)NOC)c(=O)c3cnc(Nc4cccc(OC5CN6CCC5CC6)c4)nc32)cc1` (stereo not drawn) [Cpd 247, 2-[3-(1-aza-bicyclo[2.2.2]oct-3-yloxy)-phenylamino]-8-(4-ethyl-phenyl)-5-oxo-5,8-dihydro-pyrido[2,3-d]pyrimidine-6-carboxylic acid methoxy-amide]: the IC50 was 0.59 nM.

On to `CC(=O)N1CCC(c2ccc(Nc3ncc4c(=O)c(C(N)=O)cn(-c5ccc6c(c5)CCC6)c4n3)cc2)CC1` [Cpd 126, 2-[4-(1-acetyl-piperidin-4-yl)-phenylamino]-8-indan-5-yl-5-oxo-5,8-dihydro-pyrido[2,3-d]pyrimidine-6-carboxylic acid amide], for which the IC50 worked out at 1.8 nM.

As to `CONC(=O)c1cn(-c2ccc3c(c2)CCC3)c2nc(Nc3ccc(CCN4CC[C@@H](F)C4)cc3)ncc2c1=O` [Cpd 252, 2-(4-{2-[(3R)-(3-fluoro-pyrrolidin-1-yl)]-ethyl}-phenylamino)-8-indan-5-yl-5-oxo-5,8-dihydro-pyrido[2,3-d]pyrimidine-6-carboxylic acid methoxy-amide], the IC50 is 0.57 nM. With `CCc1ccc(-n2cc(C(=O)NOC)c(=O)c3cnc(Nc4ccc(OC5CCN(CC)CC5)cc4)nc32)cc1` [Cpd 310, 8-(4-ethyl-phenyl)-2-[4-(1-ethyl-piperidin-4-yloxy)-phenylamino]-5-oxo-5,8-dihydro-pyrido[2,3-d]pyrimidine-6-carboxylic acid methoxy-amide], the IC50 was found to be 0.5 nM. Consider `NC(=O)c1cn(-c2ccc3c(c2)CCC3)c2nc(Nc3ccc(CN4CCCC4=O)cc3)ncc2c1=O` [Cpd 8, 8-indan-5-yl-5-oxo-2-[4-(2-oxo-pyrrolidin-1-ylmethyl)-phenylamino]-5,8-dihydro-pyrido[2,3-d]pyrimidine-6-carboxylic acid amide], for which the IC50 worked out at 1.6 nM. `CONC(=O)c1cn(-c2ccc3c(c2)CCC3)c2nc(Nc3cccc(S(=O)(=O)CCN(C)C)c3)ncc2c1=O` [Cpd 230, 2-[3-(2-dimethylamino-ethanesulfonyl)-phenylamino]-8-indan-5-yl-5-oxo-5,8-dihydro-pyrido[2,3-d]pyrimidine-6-carboxylic acid methoxy-amide]: the IC50 came to 1.1 nM. Regarding `CONC(=O)c1cn(-c2ccc3c(c2)CCC3)c2nc(Nc3ccc(OC4CCNCC4)cc3)ncc2c1=O` [Cpd 311, 8-indan-5-yl-5-oxo-2-[4-(piperidin-4-yloxy)-phenylamino]-5,8-dihydro-pyrido[2,3-d]pyrimidine-6-carboxylic acid methoxy-amide], the IC50 worked out at 0.3 nM. Consider `CCc1ccc(-n2cc(C(=O)NOC)c(=O)c3cnc(Nc4ccc(OCCOC)cc4)nc32)cc1` [Cpd 257, 8-(4-ethyl-phenyl)-2-[4-(2-methoxy-ethoxy)-phenylamino]-5-oxo-5,8-dihydro-pyrido[2,3-d]pyrimidine-6-carboxylic acid methoxy-amide], for which the IC50 is 1.2 nM. The same measure, in the same setting: with `CCc1ccc(-n2cc(C(=O)NOC)c(=O)c3cnc(Nc4ccc(CCN5CCCC(F)(F)C5)cc4)nc32)cc1` [Cpd 232, 2-{4-[2-(3,3-difluoro-piperidin-1-yl)-ethyl]-phenylamino}-8-(4-ethyl-phenyl)-5-oxo-5,8-dihydro-pyrido[2,3-d]pyrimidine-6-carboxylic acid methoxy-amide] the figure was 0.72 nM; with `CONC(=O)c1cn(-c2ccc3c(c2)CCC3)c2nc(Nc3ccc(CC(=O)NN4CCCCC4)cc3)ncc2c1=O` [Cpd 102, 8-indan-5-yl-5-oxo-2-[4-(piperidin-1-ylcarbamoylmethyl)-phenylamino]-5,8-dihydro-pyrido[2,3-d]pyrimidine-6-carboxylic acid methoxy-amide], 2.3 nM. As for `CONC(=O)c1cn(-c2ccc3c(c2)CCC3)c2nc(Nc3ccc(CCN(CCO)CCO)cc3)ncc2c1=O` [Cpd 100, 2-(4-{2-[bis-(2-hydroxy-ethyl)-amino]-ethyl}-phenylamino)-8-indan-5-yl-5-oxo-5,8-dihydro-pyrido[2,3-d]pyrimidine-6-carboxylic acid methoxy-amide], the IC50 amounted to 0.64 nM. As to `CONC(=O)c1cn(-c2ccc3c(c2)CCC3)c2nc(Nc3ccc(OC4CCN(C)CC4)cc3)ncc2c1=O` [Cpd 313, 8-indan-5-yl-2-[4-(1-methyl-piperidin-4-yloxy)-phenylamino]-5-oxo-5,8-dihydro-pyrido[2,3-d]pyrimidine-6-carboxylic acid methoxy-amide], the IC50 amounted to 0.3 nM. As to `CONC(=O)c1cn(-c2ccc3c(c2)CCC3)c2nc(Nc3ccc(CCN4CCC[C@@H]4C(=O)O)cc3)ncc2c1=O` [Cpd 109, (R)-1-{2-[4-(8-indan-5-yl-6-methoxycarbamoyl-5-oxo-5,8-dihydro-pyrido[2,3-d]pyrimidin-2-ylamino)-phenyl]-ethyl}-pyrrolidine-2-carboxylic acid], the IC50 worked out at 1.1 nM. Turning to `CCc1ccc(-n2cc(C(=O)NOC)c(=O)c3cnc(Nc4ccc(C5CCN(CCO)CC5)cc4)nc32)cc1` [Cpd 95, 8-(4-ethyl-phenyl)-2-{4-[1-(2-hydroxy-ethyl)-piperidin-4-yl]-phenylamino}-5-oxo-5,8-dihydro-pyrido[2,3-d]pyrimidine-6-carboxylic acid methoxy-amide], the IC50 was determined as 1.8 nM. As to `CONC(=O)c1cn(-c2ccc(C)c(C)c2)c2nc(Nc3ccc(CCN4CCCC4=O)cc3)ncc2c1=O` [Cpd 50, 8-(3,4-dimethyl-phenyl)-5-oxo-2-{4-[2-(2-oxo-pyrrolidin-1-yl)-ethyl]-phenylamino}-5,8-dihydro-pyrido[2,3-d]pyrimidine-6-carboxylic acid methoxy-amide], the IC50 came to 1.2 nM.

With `CCONC(=O)c1cn(-c2ccc3c(c2)CCC3)c2nc(Nc3ccc(C4CCN(C(C)=O)CC4)cc3)ncc2c1=O` [Cpd 70, 2-[4-(1-acetyl-piperidin-4-yl)-phenylamino]-8-indan-5-yl-5-oxo-5,8-dihydro-pyrido[2,3-d]pyrimidine-6-carboxylic acid ethoxy-amide], the IC50 worked out at 1.7 nM. The same measure, in the same setting: as for `CONC(=O)c1cn(-c2ccc3c(c2)CCC3)c2nc(Nc3ccc4cc[nH]c4c3)ncc2c1=O` [Cpd 289, 8-indan-5-yl-2-(1H-indol-6-ylamino)-5-oxo-5,8-dihydro-pyrido[2,3-d]pyrimidine-6-carboxylic acid methoxy-amide], the figure is 2 nM; as for `CONC(=O)c1cn(-c2ccc3c(c2)CCC3)c2nc(Nc3ccc(CCN4CCC[C@@H]4CO)cc3)ncc2c1=O` [Cpd 101, (R)-2-{4-[2-(2-hydroxymethyl-pyrrolidin-1-yl)-ethyl]-phenylamino}-8-indan-5-yl-5-oxo-5,8-dihydro-pyrido[2,3-d]pyrimidine-6-carboxylic acid methoxy-amide], 0.55 nM; as for `CONC(=O)c1cn(-c2ccc3c(c2)CCC3)c2nc(Nc3ccccc3)ncc2c1=O` [Cpd 300, 8-indan-5-yl-5-oxo-2-phenylamino-5,8-dihydro-pyrido[2,3-d]pyrimidine-6-carboxylic acid methoxy-amide], 1.5 nM.

With `CCc1ccc(-n2cc(C(=O)NOC)c(=O)c3cnc(Nc4ccc(OCCCOC)c(OCCCOC)c4)nc32)cc1` [Cpd 323, 2-[3,4-bis-(3-methoxy-propoxy)-phenylamino]-8-(4-ethyl-phenyl)-5-oxo-5,8-dihydro-pyrido[2,3-d]pyrimidine-6-carboxylic acid methoxy-amide], the IC50 came to 1 nM. Same read-out and setting: with `CCONC(=O)c1cn(C2CCCCC2)c2nc(Nc3ccc(C4CCN(C)CC4)cc3)ncc2c1=O` [Cpd 141, 8-cyclohexyl-2-[4-(1-methyl-piperidin-4-yl)-phenylamino]-5-oxo-5,8-dihydro-pyrido[2,3-d]pyrimidine-6-carboxylic acid ethoxy-amide] the figure was 1.3 nM; with `CONC(=O)c1cn(-c2ccc3c(c2)CCC3)c2nc(Nc3ccc(OC4CN5CCC4CC5)cc3)ncc2c1=O` (stereo not drawn) [Cpd 264, 2-[4-(1-aza-bicyclo[2.2.2]oct-3-yloxy)-phenylamino]-8-indan-5-yl-5-oxo-5,8-dihydro-pyrido[2,3-d]pyrimidine-6-carboxylic acid methoxy-amide], 0.38 nM.

The same experiment, now with this note: c-fms Peptide IC50, 0.7 nM CSF-1R, 308 μM SYEGNSYTFIDPTQ peptide, 1 mM ATP, 80 min; mean of at least three determinations.
Compound `CONC(=O)c1cn(C2CCC(C)(C)CC2)c2nc(Nc3ccc(C4CCN(C)CC4)cc3)ncc2c1=O` [Cpd 209, 8-(4,4-dimethyl-cyclohexyl)-2-[4-(1-methyl-piperidin-4-yl)-phenylamino]-5-oxo-5,8-dihydro-pyrido[2,3-d]pyrimidine-6-carboxylic acid methoxy-amide] showed an IC50 of 0.4 nM.

Usually IC50 stands for the concentration at which inhibition is half-maximal.
